Read-outs that look alike come from different tables or passages of the source.
How the values were obtained:
Format in all cases: in vivo
[1] = system: adult brown dog ticks (Rhipicephalus sanguineus); assay: Tick DMSO contact assay, Compound 1 with amitraz, Example 15; conditions: for mortality at 6.25 ppm / mortality at 12.5 ppm / mortality at 25 ppm: Rhipicephalus sanguineus; for Synergistic Ratio (EC50): EC50 alone divided by EC50 with Amitraz (12.5 ppm); for Synergistic Ratio (EC90): EC90 alone divided by EC90 with Amitraz (12.5 ppm)
Procedure: Dosages were serially diluted using this same formulation.
Scintillation vials were treated with commercial and experimental compounds using the same procedure described in Example 12 above. The treated vials were used to determine the contact toxicity of compounds against adult brown dog ticks (Rhipicephalus sanguineus). The ticks were supplied by Ecto Services Inc. Henderson, N.C.
Unfed adult ticks were released into a metal pan and 10 living ticks were aspirated into each vial. […] Two replicates were tested for each treatment and the results were averaged. Ticks were stimulated by gently exhaling in the vials. Within the same time period, the addition of amitraz to an equal dosage of compound 1 increased mean mortality.

[2] = system: Rhipicephalus sanguineus ticks; assay: Study C: tick efficacy of Compound 1 and fipronil alone and with amitraz in dogs
Procedure: The effectiveness of Compound 1 alone, fipronil alone, Compound 1 in combination with amitraz, or fipronil in combination with amitraz, when administered once as topical solutions to dogs against induced infestations of Rhipicephalus sanguineus and Ctenocephalides felis were determined in a third clinical study. Thirty-six beagles (18 males and 18 females) were selected for the study. Six replicates of 6 animals each were formed. Treatment Group 1 dogs were treated with a placebo. Treatment Groups 2, 3, 4, 5 and 6 received their respective treatments as a topical spot-on application once on Day 0. Each formulation included diethyleneglycol monoethyl ether (transcutol) as carrier. The Treatment Groups were: Treatment Group 2: fipronil at 0.1 mL/kg body weight (10 mg/kg); Treatment Group 3: Compound 1 at 0.1 mL/kg (10 mg/kg) body weight; Treatment Group 4: Compound 1 at 0.2 mL/kg (20 mg/kg) body weight; Treatment Group 5: Compound 1 at 0.1 mL/kg (10 mg/kg) body weight plus amitraz at 0.04 mL/kg (8 mg/kg) body weight; Treatment Group 6: fipronil at 0.1 mL/kg (10 mg/kg) body weight plus amitraz at 0.04 mL/kg (8 mg/kg) body weight. Treatment was applied by parting the hair and applying the formulation(s) directly onto the skin on one spot at the midline of the neck, except for Groups 4, 5 and 6 which were applied in approximately equal volumes on two spots, one spot between the base of the skull and the shoulder blades and the other at the front of the shoulder blades.
All dogs were infested with approximately 50 Rhipicephalus sanguineus ticks on Days −1, 7, 14, 21, 28, 35, 42, 49 and 56. Dogs were also infested with approximately 100 Ctenocephalides felis fleas on Days −1, 8, 15, 22, 29, 36, 43, 50 and 57. […] Tables 8 and 9 below show the % efficacy of formulations comprising fipronil at 0.1 ml/kg of body weight, Compound 1 at […], and fipronil and Compound 1 both at 10 ml/kg in combination with amitraz at 0.04 ml/kg of body weight compared to control group without active compounds. The percent reduction in flea counts of the treated groups with respect to the Control group over the study is shown in FIG. 14.

[3] = system: Ctenocephalides felis; assay: Study D: flea efficacy of Compound 1 and fipronil in cats
Procedure: A fourth clinical study was conducted to determine the efficacy of topically administered Compound 1 and fipronil against induced infections of Ctenocephalides felis in cats. Twenty four cats (17 males, 7 females) were included in the study. Six replicates of four cats each were formed based on decreasing Day −5 flea counts. Within replicates, cats were randomly allocated to Treatment Groups 1, 2, 3 or 4, respectively, by using a die: Group 1—untreated (vehicle control); Group 2—Compound 1 (10 mg/kg); Group 3—Compound 1 (20 mg/kg); Group 4—fipronil (10 mg/kg). Treatment was performed by topical administration of the formulations in the midline of the neck, between the base of the skull and the shoulder blades in a single spot after parting the hair. Animals were observed hourly for approximately four hours following treatment.
The cats were infested with approximately 100 Ct. felis fleas each during acclimation on Day −6 for allocation purposes, and on Days −1, 14, 21, 28, 35 and 42 for treatment efficacy evaluation purposes. The fleas were removed by combing each cat approximately 24 hours following each infestation except for the Day −1 infestation which was followed by flea removal and count on Day 1 (˜48 hours following infestation).

[4] = 6 h, read-out: 6 hour % Mortality Rep 1
[5] = 6 h, read-out: 6 hour % Mortality Rep 2
[6] = 6 h, read-out: 6 hour Avg. % Mortality
[7] = 24 h, read-out: 24 hour % Mortality Rep 1
[8] = 24 h, read-out: 24 hour % Mortality Rep 2
[9] = 24 h, read-out: 24 hour Avg. % Mortality
[10] = 48 h, read-out: 48 hour % Mortality Rep 1
[11] = 48 h, read-out: 48 hour % Mortality Rep 2
[12] = 48 h, read-out: 48 hour Avg. % Mortality

## Cc1ccc(/N=C/N(C)/C=N/c2ccc(C)cc2C)c(C)c1 [Amitraz, amitraz]
[1]; [4]
  mortality at 6.25 ppm: 0%
  mortality at 12.5 ppm: 0%
  mortality at 25 ppm: 0%
[1]; [5]
  mortality at 6.25 ppm: 0%
  mortality at 12.5 ppm: 0%
  mortality at 25 ppm: 0%
[1]; [6]
  mortality at 6.25 ppm: 0%
  mortality at 12.5 ppm: 0%
  mortality at 25 ppm: 0%
[1]; [7]
  mortality at 6.25 ppm: 0%
  mortality at 12.5 ppm: 0%
  mortality at 25 ppm: 0%
[1]; [8]
  mortality at 6.25 ppm: 0%
  mortality at 12.5 ppm: 0%
  mortality at 25 ppm: 0%
[1]; [9]
  mortality at 6.25 ppm: 0%
  mortality at 12.5 ppm: 0%
  mortality at 25 ppm: 0%
[1]; [10]
  mortality at 6.25 ppm: 0%
  mortality at 12.5 ppm: 0%
  mortality at 25 ppm: 10%
[1]; [11]
  mortality at 6.25 ppm: 0%
  mortality at 12.5 ppm: 0%
  mortality at 25 ppm: 10%
[1]; [12]
  mortality at 6.25 ppm: 0%
  mortality at 12.5 ppm: 0%
  mortality at 25 ppm: 10%

## Cc1c([S+]([O-])C(F)(Cl)Cl)c(C#N)nn1-c1c(F)cc(C(F)(F)F)cc1Cl (stereo not drawn) [Compound 1, 3-cyano-1-(2-chloro-6-fluoro-4-trifluoromethylphenyl)-4-dichlorofluoromethylsulfinyl-5-methyl-1H-pyrazole]
[2]; Day 1, 10 mg/kg
  % Efficacy (Tick Efficacy): 88.1%
[2]; Day 1, 20 mg/kg
  % Efficacy (Tick Efficacy): 98.6%
[2]; Day 2, 10 mg/kg
  % Efficacy (Tick Efficacy): 96.8%
[2]; Day 2, 20 mg/kg
  % Efficacy (Tick Efficacy): 98.9%
[2]; Day 8, 10 mg/kg
  % Efficacy (Tick Efficacy): 93.5%
[2]; Day 8, 20 mg/kg
  % Efficacy (Tick Efficacy): 98.6%
[2]; Day 9, 10 mg/kg
  % Efficacy (Tick Efficacy): 97.7%
[2]; Day 9, 20 mg/kg
  % Efficacy (Tick Efficacy): 100%
[2]; Day 15, 10 mg/kg
  % Efficacy (Tick Efficacy): 98.5%
[2]; Day 15, 20 mg/kg
  % Efficacy (Tick Efficacy): 99.3%
[2]; Day 16, 10 mg/kg
  % Efficacy (Tick Efficacy): 100%
[2]; Day 16, 20 mg/kg
  % Efficacy (Tick Efficacy): 100%
[2]; Day 23, 10 mg/kg
  % Efficacy (Tick Efficacy): 98.4%
[2]; Day 23, 20 mg/kg
  % Efficacy (Tick Efficacy): 100%
[2]; Day 30, 10 mg/kg
  % Efficacy (Tick Efficacy): 99%
[2]; Day 30, 20 mg/kg
  % Efficacy (Tick Efficacy): 99.5%
[2]; Day 37, 10 mg/kg
  % Efficacy (Tick Efficacy): 94.3%
[2]; Day 37, 20 mg/kg
  % Efficacy (Tick Efficacy): 98.6%
[2]; Day 44, 10 mg/kg
  % Efficacy (Tick Efficacy): 92.4%
[2]; Day 44, 20 mg/kg
  % Efficacy (Tick Efficacy): 92.3%
[2]; Day 51, 10 mg/kg
  % Efficacy (Tick Efficacy): 84.7%
[2]; Day 51, 20 mg/kg
  % Efficacy (Tick Efficacy): 86.5%
[2]; Day 58, 10 mg/kg
  % Efficacy (Tick Efficacy): 83.1%
[2]; Day 58, 20 mg/kg
  % Efficacy (Tick Efficacy): 87.4%
[3]; Day 1, 10 mg/kg
  % Efficacy against fleas: 99.84%
[3]; Day 1, 20 mg/kg
  % Efficacy against fleas: 100%
[3]; Day 15, 10 mg/kg
  % Efficacy against fleas: 99.81%
[3]; Day 15, 20 mg/kg
  % Efficacy against fleas: 100%
[3]; Day 22, 10 mg/kg
  % Efficacy against fleas: 100%
[3]; Day 22, 20 mg/kg
  % Efficacy against fleas: 100%
[3]; Day 29, 10 mg/kg
  % Efficacy against fleas: 100%
[3]; Day 29, 20 mg/kg
  % Efficacy against fleas: 100%
[3]; Day 36, 10 mg/kg
  % Efficacy against fleas: 99.43%
[3]; Day 36, 20 mg/kg
  % Efficacy against fleas: 100%
[3]; Day 43, 10 mg/kg
  % Efficacy against fleas: 97.28%
[3]; Day 43, 20 mg/kg
  % Efficacy against fleas: 100%
[1]; 6 hour Eval
  Synergistic Ratio (EC50): 11
  Synergistic Ratio (EC90): >5.72
[1]; 24 hour Eval
  Synergistic Ratio (EC50): 135.3
  Synergistic Ratio (EC90): 111.4
[1]; 48 hour Eval
  Synergistic Ratio (EC50): 133.1
  Synergistic Ratio (EC90): 50.3

## N#Cc1nn(-c2c(Cl)cc(C(F)(F)F)cc2Cl)c(N)c1[S+]([O-])C(F)(F)F (stereo not drawn) [fipronil, 5-amino-3-cyano-1-(2,6-dichloro-4-trifluoromethylphenyl)-4-trifluoromethylsulfinylpyrazole]
[2]; Day 1, 10 mg/kg
  % Efficacy (Tick Efficacy): 88.6%
[2]; Day 2, 10 mg/kg
  % Efficacy (Tick Efficacy): 90.9%
[2]; Day 8, 10 mg/kg
  % Efficacy (Tick Efficacy): 99.4%
[2]; Day 9, 10 mg/kg
  % Efficacy (Tick Efficacy): 100%
[2]; Day 15, 10 mg/kg
  % Efficacy (Tick Efficacy): 100%
[2]; Day 16, 10 mg/kg
  % Efficacy (Tick Efficacy): 100%
[2]; Day 23, 10 mg/kg
  % Efficacy (Tick Efficacy): 98.8%
[2]; Day 30, 10 mg/kg
  % Efficacy (Tick Efficacy): 100%
[2]; Day 37, 10 mg/kg
  % Efficacy (Tick Efficacy): 99%
[2]; Day 44, 10 mg/kg
  % Efficacy (Tick Efficacy): 98.2%
[2]; Day 51, 10 mg/kg
  % Efficacy (Tick Efficacy): 92.8%
[2]; Day 58, 10 mg/kg
  % Efficacy (Tick Efficacy): 82.7%
[3]; Day 1, 10 mg/kg
  % Efficacy against fleas: 97.96%
[3]; Day 15, 10 mg/kg
  % Efficacy against fleas: 100%
[3]; Day 22, 10 mg/kg
  % Efficacy against fleas: 100%
[3]; Day 29, 10 mg/kg
  % Efficacy against fleas: 95.59%
[3]; Day 36, 10 mg/kg
  % Efficacy against fleas: 99.24%
[3]; Day 43, 10 mg/kg
  % Efficacy against fleas: 97.81%

Reference: patent US8450357B2, “Compositions comprising an aryl pyrazole and/or a formamidine, methods and uses thereof” (Merial Limited, priority 2008, dated 2013)
